# Measured values from the supplement of paper PMC10307832.
# Columns and labels:
# Experiment in all cases: relative viability (nuclei count vs DMSO), 5 days (fraction); higher = more cells survive
# [1] = compound: C[As](C)SC[C@H](NC(=O)CC[C@H](N)C(=O)O)C(=O)NCC(=O)O [Darinaparsin] + CS(=O)(=O)N1CCN(Cc2cc3nc(-c4cccc5[nH]ncc45)nc(N4CCOCC4)c3s2)CC1 [Pictilisib] (partner 1 µM)
# Outline: (§1)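 Lung cancer cell lines in 1536-well plates were dosed by pin tool the day after seeding, either with one drug alone or with a fixed anchor-drug dose plus five library-drug doses (not always all listed) in √10 steps. After 5 days, cells were fixed and their nuclei stained in one step (final 0.05% Triton X-100, 1% formaldehyde, 1 ug/ml Hoechst), then counted on 4× images. Relative viability is the nuclei count in treated wells divided by that in vehicle wells. Values are medians of duplicate plates.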
# [2] = compound: C[As](C)SC[C@H](NC(=O)CC[C@H](N)C(=O)O)C(=O)NCC(=O)O [Darinaparsin] + CC(C)C[C@H](NC(=O)[C@H](Cc1ccccc1)NC(=O)c1cnccn1)B(O)O [Bortezomib] (partner 0.002 µM)
# Outline: as §1
# QS11 + Tozasertib = compound: C1CC2=C(C1)C=C(C=C2)OC3=NC(=C4C(=N3)N(C=N4)CC5=CC=C(C=C5)C6=CC=CC=C6)N[C@@H](CC7=CC=CC=C7)CO [QS11] + Cc1cc(Nc2cc(N3CCN(C)CC3)nc(Sc3ccc(NC(=O)C4CC4)cc3)n2)n[nH]1 [Tozasertib] (partner 0.1 µM)
# Outline: as §1
# Darinaparsin + Olaparib = compound: C[As](C)SC[C@H](NC(=O)CC[C@H](N)C(=O)O)C(=O)NCC(=O)O [Darinaparsin] + O=C(c1cc(Cc2n[nH]c(=O)c3ccccc23)ccc1F)N1CCN(C(=O)C2CC2)CC1 [Olaparib] (partner 8 µM)
# Outline: as §1
Cell Line,relative viability ([1]; first compound 0.08 µM),relative viability ([1]; first compound 0.8 µM),relative viability ([1]; first compound 2.53 µM),relative viability ([1]; first compound 8 µM),relative viability ([2]; first compound 0.08 µM),relative viability ([2]; first compound 0.8 µM),relative viability ([2]; first compound 2.53 µM),relative viability ([2]; first compound 8 µM),relative viability (QS11 + Tozasertib; first compound 0.08 µM),relative viability (QS11 + Tozasertib; first compound 0.253 µM),relative viability (QS11 + Tozasertib; first compound 0.8 µM),relative viability (QS11 + Tozasertib; first compound 2.53 µM),relative viability (QS11 + Tozasertib; first compound 8 µM),relative viability (Darinaparsin + Olaparib; first compound 0.08 µM),relative viability (Darinaparsin + Olaparib; first compound 0.8 µM),relative viability (Darinaparsin + Olaparib; first compound 2.53 µM),relative viability (Darinaparsin + Olaparib; first compound 8 µM)
HOP-62,0.99,0.588,0.774,1.04,1.31,0.784,1.12,0.671,0.363,0.442,0.31,0.281,0.302,0.56,0.487,0.402,0.525
UMC-11,0.897,0.821,0.75,0.915,0.81,0.728,0.442,0.739,0.174,0.27,0.182,0.181,0.184,0.494,0.347,0.536,0.346
HCC-44,0.852,0.574,0.44,0.677,1.04,0.861,0.801,1.04,1,0.981,0.694,0.792,0.458,1.06,0.993,0.942,1.03
NCI-H727,0.405,0.425,0.297,0.465,0.912,0.742,0.963,0.986,0.58,0.602,0.539,0.647,0.511,0.388,0.561,0.726,0.612
A-427,0.893,0.761,0.757,0.856,1.05,0.977,0.954,1.08,0.21,0.207,–,0.209,0.201,0.71,0.8,0.787,0.791
HCC-827,1.06,0.907,0.901,1.01,1.12,1.02,1.08,1.15,0.389,0.416,0.315,0.433,0.457,0.784,0.638,0.65,0.759
EKVX,0.508,0.404,0.452,0.488,1.14,0.96,0.946,1.41,0.369,0.367,–,0.302,0.457,0.878,0.697,0.801,0.735
NCI-H661,0.422,0.4,0.491,0.42,0.975,0.853,0.92,0.889,0.36,0.375,0.299,0.353,0.343,0.799,0.787,0.699,0.815
NCI-H1975,0.289,0.299,0.289,0.28,0.444,0.4,0.291,0.306,0.823,1.01,0.585,0.408,0.225,1.09,0.782,0.808,1.02
SK-LU-1,0.661,0.58,0.502,0.789,1.58,1.19,0.871,1.33,0.293,0.323,0.352,0.312,0.278,0.613,0.431,0.407,0.562
NCI-H1755,0.461,0.398,0.355,0.38,1.04,0.94,0.915,1.18,0.617,0.555,0.454,0.515,0.411,0.915,0.774,0.848,0.899
NCI-H650,0.856,0.834,0.922,1.13,0.881,0.894,0.728,0.776,0.65,0.759,0.728,0.641,0.536,0.368,0.361,0.418,0.34
SW 1573,0.621,0.545,0.49,0.495,1.02,1.01,1.05,1.29,0.235,0.138,0.186,0.212,0.197,0.592,0.493,0.42,0.431
NCI-H322M,0.58,0.495,0.469,0.59,1.21,1.3,1.04,1.32,0.479,0.479,0.45,0.545,0.64,0.763,0.763,0.713,0.726
ABC-1,0.793,0.648,0.738,0.904,0.256,0.443,0.331,0.234,0.191,0.157,0.174,0.168,0.183,1.14,0.99,1.02,1.08
NCI-H1993,0.885,0.783,0.695,0.848,1.24,0.875,1.31,1.04,0.563,0.573,0.605,0.669,0.616,1.06,1.01,1.1,1.08
NCI-H1355,0.445,0.37,0.451,0.456,1.38,1.13,1.19,1.36,0.569,0.564,0.425,0.452,0.413,0.78,0.708,0.676,0.746
PC-3 [JPC-3],0.747,0.674,0.63,0.877,0.98,0.829,0.73,0.815,0.881,0.939,0.857,0.972,0.764,1.42,1.15,1.16,1.26
NCI-H1651,0.721,0.554,0.471,0.865,1.05,1.05,0.917,1.12,0.819,0.698,0.678,0.548,0.507,0.192,0.18,0.18,0.159
